Measured values reported in patent publication US20070219115A1, “Pharmaceutical Uses of Bisphosphonates” (priority 2003, published 2007).

B1: TRAIL: TNF-related apoptosis inducing ligand, purchased from R&D systems (protein, UniProt P50591 1-281, looked up)
Tumor necrosis factor ligand …: MAMMEVQGGPSLGQTCVLIVIFTVLLQSLCVAVTYVYFTNELKQMQDKYSKSGIACFLKEDDSYWDPNDEESMNSPCWQVKWQLRQLVRKMILRTSEETISTVQEKQQNISPLVRERGPQRVAAHITGTRGRSNTLSSPNSKNEKALGRKINSWESSRSGHSFLSNLHLRNGELVIHEKGFYYIYSQTYFRFQEEIKENTKNDKQMVQYIYKYTSYPDPILLMKSARNSCWSKDAEYGLYSIYQGGIFELKENDRIFVSVTNEHLIDMDHEASFFGAFLVG

Tests used:
MCF7 cells = experiment: Apoptosis of MCF7 cells treated with ZOL and/or PAC, evaluated by nuclear morphology; type: cell-based; conditions: for apoptosis: Experiment 2: 2 nM PAC 4 hours day 1, 1 μM ZOL 1 hour day 2, combined or alone, drug free medium to 48 hours
Description: MCF7 cells are seeded and pre-incubated then treated with ZOL and/or PAC in the sequences given below. In the case of the PAC then ZOL sequence, in one of the experiments geranylglycerol (GGOH, 50 μM) is added and then removed with the ZOL. Apoptosis is determined by evaluation of nuclear morphology.
Group 1: 25 μM ZOL (for 1 hour on day 1) followed by 2 nM PAC (for 4 hours day 2)
Group 2: 2 nM PAC (for 4 hours on day 1) followed by 25 μm ZOL (for 1 hour on day 2)
Following the last drug exposure the cells in each group are incubated in drug free medium to 48 hours.
2 nM PAC (for 4 hours on day 1) followed by 1 μM ZOL (for 1 hour on day 2). Following the last drug exposure the cells are incubated in drug free medium to 48 hours.
2 nM PAC (for 4 hours on day 1) followed by 25 μM or 1 μM ZOL (for 1 hour on day 2), with or without geranylgeraniol (GGOH) 50 μM (added and removed simultaneously with the ZOL). Following the last drug exposure the cells are incubated in drug free medium to 48 hours.

MCF7Ca cells [1] = experiment: Apoptosis/necrosis of MCF7Ca cells, nuclear morphology after Hoechst and propidium iodide staining; type: cell-based; conditions: for apoptotic cell death, each drug individually: MCF7Ca treated with each drug individually
Description: (§1) Breast cancer cells MCF7Ca (gift from Dr Chen, NY, USA) are used. Letrozole and zoledronic acid are provided by Novartis AG, Basel, Switzerland.
Following the initial dose-response studies the sequential and combined treatments are carried out using 10 μM zoledronic acid and 100 nM letrozole for 24 hours each, followed by a drug-free incubation period up to 24 hours. In some additional studies 1 μM zoledronic acid is used for 1 hour only.
The levels of apoptotic/necrotic tumour cell death are determined by evaluation of nuclear morphology following staining of the cells using Hoechst and propidium iodide.
The levels of apoptosis and necrosis caused by increasing doses of zoledronic acid is determined by expressing the cells to zoledronic acid for 1 hour, followed by a 72 hour incubation in drug-free medium. [drawing]
The levels of apoptosis caused by increasing doses of letrozole is determined by exposing the cells to letrozole for 72 hours. [drawing]
Cells are treated with a combination of 100 nM letrozole and 10 μM zoledronic acid for 24 hours, and the levels of apoptotic cell death determined following an additional 48 hours incubation in drug-free medium. [drawing]
In this series of experiments the cells are exposed to 10 μM zoledronic acid for 24 hours, washed and subsequently treated with 100 nM letrozole for 24 hours. The levels of apoptotic cell death are determined following a further 24 hours incubation in drug-free medium. [drawing]
(GGOH is an intermediary of the mevalonate pathway and is commonly used to reverse the effects of zoledronic acid inhibition of this pathway). In this set of experiments cells are treated with 100 nM letrozole for 24 hours followed by 1 hour treatment with 10 μM zoledronic acid+50 μM GGOH. The level of apoptosis is determined at 72 hours.
These experiments are performed in order to determine if the effects of zoledronic acid and letrozole are affected by starving the cells by treating them under serum-free conditions. [drawing]

MCF7Ca cells [2] = experiment: MCF7Ca cell growth, cells counted with coulter counter; type: cell-based
Description: as §1
MCF7Ca cells are exposed to increasing doses of zoledronic acid for 1 hour, the drug removed and the cells incubated in drug-free medium up to 72 hours. The number of cells are counted using a coulter counter. [drawing]
MCF7Ca cells are exposed to increasing doses of letrozole for 24, 48 and 72 hours. For the 24 and 48 hour time points the drug is removed and the cells incubated in drug-free medium up to 72 hours. The number of cells are counted using a coulter counter. [drawing]

[3] = following infusion of ZOL in vivo, for a few hours; cited from earlier work
[4] = system: breast cancer lines MDA-MB-426 and MCF7; experiment: Apoptosis of breast cancer cells treated with ZOL and TRAIL; type: cell-based; conditions: single agents as controls
Description: The breast cancer lines MDA-MB-426 and MCF7 and the prostate cancer cell line PC3 are treated with ZOL (25 μM and TRAIL (purchased from R&D systems, Abingdon, UK; 10 ng/ml) for varying incubation periods and sequences as follows:
Group 1: TRAIL given first for 24 hours followed by ZOL for 48 hours. […]
Group 3: ZOL and TRAIL given simultaneously for 24 hours.
Group 4: TRAIL given first for 24 hours then ZOL for 4 hours followed by drug-free medium for 48 hours.
Group 5: ZOL given first for 4 hours and cells maintained in drug-free medium for 48 hours followed by TRAIL for 24 hours.

[5] = 100 μM, 1 hour exposure, 72 hour drug-free
[6] = group 1: TRAIL 10 ng/ml 24 hours followed by ZOL 25 μM 48 hours
[7] = group 2: ZOL 25 μM for 48 hours followed by TRAIL 10 ng/ml
[8] = group 3: ZOL 25 μM and TRAIL 10 ng/ml together for 24 hours
[9] = 100 nM (highest dose tested), 72 hours

Molecule | apoptosis (MCF7 cells) | apoptotic cell death, each drug individually (MCF7Ca cells [1]) | apoptosis [4, 6] | apoptosis [4, 7] | apoptosis [4, 8] | other results
CC(=O)O[C@H]1C(=O)[C@@]2(C)[C@H]([C@H](OC(=O)c3ccccc3)[C@]3(O)C[C@H](OC(=O)[C@H](O)[C@@H](NC(=O)c4ccccc4)c4ccccc4)C(C)=C1C3(C)C)[C@]1(OC(C)=O)CO[C@@H]1C[C@@H]2O (relative stereo) [PAC, [2aR-[2aα, 4β, 4αβ, 6αβ, 9α(αR*, βS*),-11α,12α,12aα,12bα]]-β-(benzoylamino)-α-hydroxybenzenepropanoic acid 6,12b-bis(acetyloxy)-12-(benzoyloxy)-2α,3,4,4a,5,6,9,10,11,12,12a,12b-dodecahydro-4,11-dihydroxy-4a,8,13,13-tetramethyl-5-oxo-7,11-methano-1H-cyclodeca[3,4]benz[1,2-b]oxet-9-yl ester] | 1.25% |  |  |  |  | 
CC(C)=CCC/C(C)=C/CC/C(C)=C/CC/C(C)=C/CO [GGOH, geranylgeraniol] |  |  |  |  |  | level of apoptosis with GGOH added (MCF7Ca cells [1]; 100 nM letrozole 24 hours followed by 1 hour 10 μM zoledronic acid + 50 μM GGOH, apoptosis at 72 hours): reduced to the same level observed using letrozole alone; prevention of the synergistic increase in apoptotic cell death (MCF7 cells; Experiment 3: PAC followed by ZOL combined with GGOH 50 μM): 70-80%
O=P(O)(O)C(O)(Cn1ccnc1)P(=O)(O)O [ZOL, 2-(imidazol-1yl)-1-hydroxyethane-1,1-diphosphonic acid] | 0.25% | do not induce significant levels of apoptotic cell death | 0.5% | 0.7% | 0.7% | apoptotic cells (MCF7Ca cells [1]; [5]): less than 3%; necrotic cell death (MCF7Ca cells [1]; [5]): 4.5%; doses causing a decrease in the number of MCF7Ca (MCF7Ca cells [2]; 1 hour exposure, drug-free medium up to 72 hours): above 1 μM; peak plasma concentration [3]: 1 to 2 µM
N#Cc1ccc(C(c2ccc(C#N)cc2)n2cncn2)cc1 [letrozole, 4-[α-(4-cyanophenyl)-1-(1,2,4-triazolyl)methyl]-benzonitrile] |  | do not induce significant levels of apoptotic cell death |  |  |  | apoptosis (MCF7Ca cells [1]; [9]): less than 3%; necrosis (MCF7Ca cells [1]; [9]): less than 4%; effect on cell number at low doses (MCF7Ca cells [2]; 0.1 nM (all time points), 1 nM (24 and 48 hours)): Increased number of cells; reduction in cell number compared to control (MCF7Ca cells [2]; 100 nM letrozole, 72 hours): 31%
B1 |  |  | 1.75% | 2.7% | 1.75% | 
